{"source": "paper PMC5218480", "about": "(PLoS ONE, 2017)", "tested_on": "MV-4-11 cells", "test": "Gene expression microarray analysis (Affymetrix PrimeView) and GSEA", "format": "cell-based, human", "design": "RFU PODN (11730768_x_at) / Fold change /veh PODN (11730768_x_at) / RFU LINC00158 (11744669_a_at) / Fold change /veh LINC00158 (11744669_a_at) / RFU DUSP10 (11751237_a_at) / Fold change /veh DUSP10 (11751237_a_at) / RFU ID3 (11757404_x_at) / Fold change /veh ID3 (11757404_x_at) / RFU PLEKHG5 (11737974_s_at) / Fold change /veh PLEKHG5 (11737974_s_at) / RFU LRRC4B (11730491_at) / Fold change /veh LRRC4B (11730491_at) / RFU GIMAP4 (11747438_a_at) / Fold change /veh GIMAP4 (11747438_a_at) / RFU KRT8 (11758183_x_at) / Fold change /veh KRT8 (11758183_x_at) / RFU CNN1 (11734310_a_at) / Fold change /veh CNN1 (11734310_a_at) / RFU VPS37D (11726825_at) / Fold change /veh VPS37D (11726825_at) / RFU C10orf10 (11716522_x_at) / Fold change /veh C10orf10 (11716522_x_at) / RFU KIR2DL2 /// KIR2DL4 /// KIR2DL5A /// KIR2DL5B /// KIR2DS1 /// KIR2DS2 /// KIR2DS3 /// KIR2DS4 /// KIR3DL3 /// KIR3DL3 /// KIR3DS1 (11738374_at) / Fold change /veh KIR2DL2 /// KIR2DL4 /// KIR2DL5A /// KIR2DL5B /// KIR2DS1 /// KIR2DS2 /// KIR2DS3 /// KIR2DS4 /// KIR3DL3 /// KIR3DL3 /// KIR3DS1 (11738374_at) / RFU C1QL1 (11718748_at) / Fold change /veh C1QL1 (11718748_at) / RFU TMPRSS4 (11747572_a_at) / Fold change /veh TMPRSS4 (11747572_a_at) / RFU HAMP (11756126_x_at) / Fold change /veh HAMP (11756126_x_at) / RFU RNFT2 (11725882_a_at) / Fold change /veh RNFT2 (11725882_a_at) / RFU NR4A2 (11747474_a_at) / Fold change /veh NR4A2 (11747474_a_at) / RFU ABCC12 (11746883_a_at) / Fold change /veh ABCC12 (11746883_a_at) / RFU TMEM136 (11760407_x_at) / Fold change /veh TMEM136 (11760407_x_at) / RFU CLDN22 /// WWC2 (11732394_at) / Fold change /veh CLDN22 /// WWC2 (11732394_at) / RFU HLA-DPB1 (11760878_x_at) / Fold change /veh HLA-DPB1 (11760878_x_at) / RFU SPINT1 (11716480_a_at) / Fold change /veh SPINT1 (11716480_a_at) / RFU GAP43 (11754022_s_at) / Fold change /veh GAP43 (11754022_s_at) / RFU A4GNT (11735810_at) / Fold change /veh A4GNT (11735810_at) / RFU PRB3 (11715151_x_at) / Fold change /veh PRB3 (11715151_x_at) / RFU TUBB4B (11761932_at) / Fold change /veh TUBB4B (11761932_at) / RFU CAPN14 (11732068_a_at) / Fold change /veh CAPN14 (11732068_a_at) / RFU TMCC2 (11721928_a_at) / Fold change /veh TMCC2 (11721928_a_at) / RFU IRGQ (11745062_a_at) / Fold change /veh IRGQ (11745062_a_at) / RFU FAM174B (11720279_a_at) / Fold change /veh FAM174B (11720279_a_at) / RFU TMPRSS4 (11748680_a_at) / Fold change /veh TMPRSS4 (11748680_a_at) / RFU FAM212B (11763350_a_at) / Fold change /veh FAM212B (11763350_a_at) / RFU PLEKHG5 (11743358_a_at) / Fold change /veh PLEKHG5 (11743358_a_at) / RFU ZSCAN30 (11745921_a_at) / Fold change /veh ZSCAN30 (11745921_a_at) / RFU CMKLR1 (11741424_a_at) / Fold change /veh CMKLR1 (11741424_a_at) / RFU LOC101060620 /// MAPK8IP1 (11723275_at) / Fold change /veh LOC101060620 /// MAPK8IP1 (11723275_at) / RFU SPTSSB (11747773_x_at) / Fold change /veh SPTSSB (11747773_x_at) / RFU PRSS12 (11739890_at) / Fold change /veh PRSS12 (11739890_at) / RFU BIN1 (11741810_x_at) / Fold change /veh BIN1 (11741810_x_at) / RFU WNT11 (11732464_a_at) / Fold change /veh WNT11 (11732464_a_at) / RFU C10orf10 (11716521_a_at) / Fold change /veh C10orf10 (11716521_a_at) / RFU C5orf56 (11738089_at) / Fold change /veh C5orf56 (11738089_at) / RFU CYB561 (11721691_x_at) / Fold change /veh CYB561 (11721691_x_at) / RFU ANKRD19P (11752326_a_at) / Fold change /veh ANKRD19P (11752326_a_at) / RFU OR2T12 /// OR2T33 /// OR2T8 (11738714_s_at) / Fold change /veh OR2T12 /// OR2T33 /// OR2T8 (11738714_s_at) / RFU VCAN (11748164_a_at) / Fold change /veh VCAN (11748164_a_at) / RFU JSRP1 (11732532_at) / Fold change /veh JSRP1 (11732532_at) / RFU KRTAP10-11 (11738290_x_at) / Fold change /veh KRTAP10-11 (11738290_x_at) / RFU MYO3A (11730013_a_at) / Fold change /veh MYO3A (11730013_a_at) / RFU EBF3 (11725865_a_at) / Fold change /veh EBF3 (11725865_a_at) / RFU CAMK2N1 (11719241_x_at) / Fold change /veh CAMK2N1 (11719241_x_at) / RFU C5orf56 (11738088_a_at) / Fold change /veh C5orf56 (11738088_a_at) / RFU OLFML3 (11715873_a_at) / Fold change /veh OLFML3 (11715873_a_at) / RFU LOC100653217 /// NTM (11731650_a_at) / Fold change /veh LOC100653217 /// NTM (11731650_a_at) / RFU MAPK11 (11762145_a_at) / Fold change /veh MAPK11 (11762145_a_at) / RFU FIZ1 (11724087_x_at) / Fold change /veh FIZ1 (11724087_x_at) / RFU OASL (11726364_x_at) / Fold change /veh OASL (11726364_x_at) / RFU SOX15 (11748057_x_at) / Fold change /veh SOX15 (11748057_x_at) / RFU CD79A (11719716_a_at) / Fold change /veh CD79A (11719716_a_at) / RFU HIST1H1D (11736915_at) / Fold change /veh HIST1H1D (11736915_at) / RFU CASKIN2 (11723855_a_at) / Fold change /veh CASKIN2 (11723855_a_at) / RFU LOC730098 (11760151_x_at) / Fold change /veh LOC730098 (11760151_x_at) / RFU OR4N2 (11742367_at) / Fold change /veh OR4N2 (11742367_at) / RFU PRRT2 (11749266_a_at) / Fold change /veh PRRT2 (11749266_a_at) / RFU SNX32 (11753110_a_at) / Fold change /veh SNX32 (11753110_a_at) / RFU CDHR5 (11726645_a_at) / Fold change /veh CDHR5 (11726645_a_at) / RFU RCAN1 (11760418_a_at) / Fold change /veh RCAN1 (11760418_a_at) / RFU FAM167A (11723789_a_at) / Fold change /veh FAM167A (11723789_a_at) / RFU FAM26E (11764081_at) / Fold change /veh FAM26E (11764081_at) / RFU ISYNA1 (11749810_s_at) / Fold change /veh ISYNA1 (11749810_s_at) / RFU ACY1 (11761880_at) / Fold change /veh ACY1 (11761880_at) / RFU 11764098_at / Fold change /veh 11764098_at / RFU SAMD14 (11745864_x_at) / Fold change /veh SAMD14 (11745864_x_at) / RFU NPB (11741838_a_at) / Fold change /veh NPB (11741838_a_at) / RFU TMPRSS6 (11731388_a_at) / Fold change /veh TMPRSS6 (11731388_a_at) / RFU KRTAP10-2 (11738614_at) / Fold change /veh KRTAP10-2 (11738614_at) / RFU ARHGAP8 /// PRR5-ARHGAP8 (11727945_x_at) / Fold change /veh ARHGAP8 /// PRR5-ARHGAP8 (11727945_x_at) / RFU KRTAP5-7 /// NADSYN1 (11734609_at) / Fold change /veh KRTAP5-7 /// NADSYN1 (11734609_at) / RFU RASL12 (11751679_a_at) / Fold change /veh RASL12 (11751679_a_at) / RFU CDKN2B (11736163_a_at) / Fold change /veh CDKN2B (11736163_a_at) / RFU PRF1 (11729649_at) / Fold change /veh PRF1 (11729649_at) / RFU, ZNF638 /// ZNF638-IT1 / Fold change vs veh, ZNF638 /// ZNF638-IT1 / RFU, PANK3 / Fold change vs veh, PANK3 / RFU, SH3YL1 / Fold change vs veh, SH3YL1 / RFU, ZEB2 / Fold change vs veh, ZEB2 / RFU, NRIP1 / Fold change vs veh, NRIP1 / RFU, PTTG1IP / Fold change vs veh, PTTG1IP / RFU, CAPN2 / Fold change vs veh, CAPN2 / RFU, MED14 / Fold change vs veh, MED14 / RFU, SNORA58 / Fold change vs veh, SNORA58 / RFU, C1orf63 / Fold change vs veh, C1orf63 / RFU, LRRFIP1 / Fold change vs veh, LRRFIP1 / RFU, NDUFAF7 / Fold change vs veh, NDUFAF7 / RFU, SLC12A2 / Fold change vs veh, SLC12A2 / RFU, IBTK / Fold change vs veh, IBTK / RFU, ESF1 / Fold change vs veh, ESF1 / Fold change vs veh, TMEM50B / RFU, TAOK1 / Fold change vs veh, TAOK1 / RFU, ACBD3 / Fold change vs veh, ACBD3 / RFU, TMA16 / Fold change vs veh, TMA16 / RFU, RWDD3 / Fold change vs veh, RWDD3 / RFU, BCAT1 / Fold change vs veh, BCAT1 / RFU, EDEM3 / Fold change vs veh, EDEM3 / RFU, TMEM33 / Fold change vs veh, TMEM33 / RFU, WDR75 / Fold change vs veh, WDR75 / RFU, AHCTF1 / Fold change vs veh, AHCTF1 / RFU, TFRC / Fold change vs veh, TFRC / RFU, ZDHHC17 / Fold change vs veh, ZDHHC17 / RFU, NOM1 / Fold change vs veh, NOM1 / RFU, ARL8B / Fold change vs veh, ARL8B / RFU, ZBTB11 / Fold change vs veh, ZBTB11 / RFU, TAMM41 / Fold change vs veh, TAMM41 / RFU, KIAA1704 /// LOC100996395 / Fold change vs veh, KIAA1704 /// LOC100996395 / RFU, ING1 / Fold change vs veh, ING1 / RFU, TRMT61B / Fold change vs veh, TRMT61B / RFU, FUBP3 / Fold change vs veh, FUBP3 / RFU, TP53 / Fold change vs veh, TP53 / RFU, TNKS2 / Fold change vs veh, TNKS2 / RFU, ZFP14 / Fold change vs veh, ZFP14 / RFU, ACTR2 / Fold change vs veh, ACTR2 / RFU, PPP3R1 / Fold change vs veh, PPP3R1 / RFU, PIK3R1 / Fold change vs veh, PIK3R1 / RFU, HNRNPA1 / Fold change vs veh, HNRNPA1 / RFU, RNF170 / Fold change vs veh, RNF170 / RFU, ZNF28 / Fold change vs veh, ZNF28 / RFU, RNGTT / Fold change vs veh, RNGTT / RFU, OGT / Fold change vs veh, OGT / RFU, BRD1 / Fold change vs veh, BRD1 / RFU, MARS / Fold change vs veh, MARS / RFU, ZNF655 / Fold change vs veh, ZNF655 / RFU, FAHD1 / Fold change vs veh, FAHD1 / RFU, BDP1 / Fold change vs veh, BDP1 / RFU, LRRCC1 / Fold change vs veh, LRRCC1 / RFU, ARID1A / Fold change vs veh, ARID1A / RFU, ZNF146 / Fold change vs veh, ZNF146 / RFU, ZNF330 / Fold change vs veh, ZNF330 / RFU, GPN3 / Fold change vs veh, GPN3 / RFU, C9orf123 / Fold change vs veh, C9orf123 / RFU, N4BP2L2 / Fold change vs veh, N4BP2L2 / RFU, ARFIP1 / Fold change vs veh, ARFIP1 / RFU, FAM179B / Fold change vs veh, FAM179B / RFU, BCL10 / Fold change vs veh, BCL10 / RFU, UHRF1BP1L / Fold change vs veh, UHRF1BP1L / RFU, BET1 / Fold change vs veh, BET1 / RFU, CNOT2 / Fold change vs veh, CNOT2 / RFU, ZNF268 / Fold change vs veh, ZNF268 / Fold change vs veh, ZNF507 / RFU, DGCR2 / Fold change vs veh, DGCR2 / RFU, WDSUB1 / Fold change vs veh, WDSUB1 / Fold change vs veh, HSP90B1 /// MIR3652 / RFU, ADSS / Fold change vs veh, ADSS / RFU, GK / Fold change vs veh, GK / RFU, ZNF148 / Fold change vs veh, ZNF148 / RFU, TAF9 / Fold change vs veh, TAF9 / RFU, SLC1A5 / Fold change vs veh, SLC1A5 / RFU, SLMO2 / Fold change vs veh, SLMO2 / RFU, ABCC4 / Fold change vs veh, ABCC4 / RFU, LOC101060439 /// RAP1B / Fold change vs veh, LOC101060439 /// RAP1B / RFU, RFX7 / Fold change vs veh, RFX7 / RFU, GTPBP10 / Fold change vs veh, GTPBP10 / RFU, CNEP1R1 / Fold change vs veh, CNEP1R1 / RFU, BIVM-ERCC5 /// ERCC5 / Fold change vs veh, BIVM-ERCC5 /// ERCC5 / RFU, ILF3 / Fold change vs veh, ILF3 / RFU 11762660_at / Fold change /veh 11762660_at / RFU VCAN (11757783_s_at) / Fold change /veh VCAN (11757783_s_at) / RFU DDX43 (11728927_at) / Fold change /veh DDX43 (11728927_at) / RFU KRT8 (11758188_x_at) / Fold change /veh KRT8 (11758188_x_at) / RFU NKD1 (11759106_at) / Fold change /veh NKD1 (11759106_at) / RFU SRD5A1 (11742802_a_at) / Fold change /veh SRD5A1 (11742802_a_at) / RFU TPSAB1 /// TPSB2 (11721975_s_at) / Fold change /veh TPSAB1 /// TPSB2 (11721975_s_at) / RFU GSTM3 (11746129_a_at) / Fold change /veh GSTM3 (11746129_a_at) / RFU IL23R (11737362_x_at) / Fold change /veh IL23R (11737362_x_at) / RFU TMEM51 (11727254_a_at) / Fold change /veh TMEM51 (11727254_a_at) / RFU PIWIL2 (11732686_x_at) / Fold change /veh PIWIL2 (11732686_x_at) / RFU ORM1 (11744905_x_at) / Fold change /veh ORM1 (11744905_x_at) / RFU CCDC152 (11743942_at) / Fold change /veh CCDC152 (11743942_at) / RFU ECM1 (11717891_a_at) / Fold change /veh ECM1 (11717891_a_at) / RFU IL23R (11748794_a_at) / Fold change /veh IL23R (11748794_a_at) / RFU TNFAIP8L3 (11732012_x_at) / Fold change /veh TNFAIP8L3 (11732012_x_at) / RFU MBOAT4 (11741988_at) / Fold change /veh MBOAT4 (11741988_at) / RFU 11764193_at / Fold change /veh 11764193_at / RFU TMEM53 (11763286_at) / Fold change /veh TMEM53 (11763286_at) / RFU MAGEB2 (11727129_at) / Fold change /veh MAGEB2 (11727129_at) / RFU TMEM200A (11744735_a_at) / Fold change /veh TMEM200A (11744735_a_at) / RFU CCDC152 (11751479_a_at) / Fold change /veh CCDC152 (11751479_a_at) / RFU FAM211A (11726209_a_at) / Fold change /veh FAM211A (11726209_a_at) / RFU RGS16 (11746705_a_at) / Fold change /veh RGS16 (11746705_a_at) / RFU VCAN (11755009_s_at) / Fold change /veh VCAN (11755009_s_at) / RFU RHOB (11743442_s_at) / Fold change /veh RHOB (11743442_s_at) / RFU RGS16 (11720943_a_at) / Fold change /veh RGS16 (11720943_a_at) / RFU RGS16 (11720944_at) / Fold change /veh RGS16 (11720944_at) / RFU, VPS4B / Fold change vs veh, VPS4B / RFU, CREB1 / Fold change vs veh, CREB1 / RFU, DNAJC13 / Fold change vs veh, DNAJC13 / RFU, GNAQ / Fold change vs veh, GNAQ / RFU, CDK5R1 / Fold change vs veh, CDK5R1 / RFU, ZRANB3 / Fold change vs veh, ZRANB3 / RFU, CUL4A / Fold change vs veh, CUL4A / RFU, CCNY / Fold change vs veh, CCNY / RFU, UFL1 / Fold change vs veh, UFL1 / RFU, COG3 / Fold change vs veh, COG3 / RFU, DIAPH2 / Fold change vs veh, DIAPH2 / RFU, SKA2 / Fold change vs veh, SKA2 / RFU, AFF3 / Fold change vs veh, AFF3 / RFU, LMF1 / Fold change vs veh, LMF1 / RFU, IPO11 / Fold change vs veh, IPO11 / RFU, DFFB / Fold change vs veh, DFFB / RFU, FOXP1 / Fold change vs veh, FOXP1 / RFU, CARD8 / Fold change vs veh, CARD8 / RFU, STRN3 / Fold change vs veh, STRN3 / RFU, ADK / Fold change vs veh, ADK / RFU, RASSF2 / Fold change vs veh, RASSF2 / RFU, WIPF1 / Fold change vs veh, WIPF1 / RFU, LARP1B / Fold change vs veh, LARP1B / RFU, RASA1 / Fold change vs veh, RASA1 / RFU, RB1 / Fold change vs veh, RB1 / RFU, PPFIA1 / Fold change vs veh, PPFIA1 / RFU, MAT2A / Fold change vs veh, MAT2A / RFU, CCT5 / Fold change vs veh, CCT5 / RFU, WDR92 / Fold change vs veh, WDR92 / RFU, CUX1 / Fold change vs veh, CUX1 / RFU, TTC7A / Fold change vs veh, TTC7A / RFU, TMEM135 / Fold change vs veh, TMEM135 / RFU, DEPTOR / Fold change vs veh, DEPTOR / RFU, CPM / Fold change vs veh, CPM / RFU, DNAJB6 / Fold change vs veh, DNAJB6 / RFU, CACNA2D3 / Fold change vs veh, CACNA2D3 / RFU, DTX4 / Fold change vs veh, DTX4 / RFU, TFCP2 / Fold change vs veh, TFCP2 / RFU, GMCL1 /// GMCL1P1 / Fold change vs veh, GMCL1 /// GMCL1P1 / RFU, AEBP2 / Fold change vs veh, AEBP2 / RFU, SNHG1 /// SNORD22 /// SNORD25 /// SNORD26 /// SNORD27 /// SNORD28 /// SNORD29 /// SNORD31 / Fold change vs veh, SNHG1 /// SNORD22 /// SNORD25 /// SNORD26 /// SNORD27 /// SNORD28 /// SNORD29 /// SNORD31 / Fold change (Aza/veh), C12orf56 (ProbeSet 11735607_a_at) / Fold change (ACY-1035/veh), C12orf56 (ProbeSet 11735607_a_at) / Fold change (Aza/veh), FGFR1OP (ProbeSet 11751329_s_at) / Fold change (ACY-1035/veh), FGFR1OP (ProbeSet 11751329_s_at) / Fold change (Aza/veh), VPS36 (ProbeSet 11739960_a_at) / Fold change (ACY-1035/veh), VPS36 (ProbeSet 11739960_a_at) / RFU SYPL1 (11715823_x_at) / Fold change /veh SYPL1 (11715823_x_at) / RFU IGFBP7 (11715501_s_at) / Fold change /veh IGFBP7 (11715501_s_at) / RFU REEP3 (11722064_at) / Fold change /veh REEP3 (11722064_at) / RFU IGLL1 (11728026_x_at) / Fold change /veh IGLL1 (11728026_x_at): dose or concentration left out as unconfirmed", "settings": "ProbeSet 11758397_s_at; LIST B"}
{"smiles": "Nc1ccc(-c2cccs2)cc1NC(=O)c1ccc2c(c1)cc(C1CC1)n2CCN1CCOCC1", "note": "[ACY-1035]", "values": [{"measurement": "RFU, RNF170", "result": 143.47, "unit": "RFU"}]}
